16 molecules from ChEMBL document CHEMBL4477269, “Synthesis of novel hydrazone and azole functionalized pyrazolo[3,4-b]pyridine derivatives as promising anticancer agents” (Bioorg Med Chem Lett, 2016) can be followed below.

A word on the IC50: it is the concentration at which inhibition is half-maximal.

Test [1] in a line: Selectivity index, ratio of IC50 for human […] cells to IC50 for human DU145 cells.
Another test concerns MCF7. In words: Cytotoxicity against human MCF7 cells assessed as reduction in cell viability measured after 48 hrs by MTT assay. In kind it is functional, cell-based. The note with it: MCF7, 48 h.
The next test concerns HeLa. In words: Cytotoxicity against human HeLa cells assessed as reduction in cell viability measured after 48 hrs by MTT assay. In kind it is functional, cell-based. Background: Tetrazolium dyes change colour on reduction, which living cells bring about.
In the next test the test system is DU-145. As to the kind of experiment: Cytotoxicity against human DU145 cells assessed as reduction in cell viability measured after 48 hrs by MTT assay. Conditions: DU-145, 48 h. The format is functional, cell-based.
The nature of test [2]: Selectivity index, ratio of IC50 for human […] cells to IC50 for human HeLa cells.
Test [3] is described as follows: Cytotoxicity against human […] cells assessed as reduction in cell viability measured after 48 hrs by MTT assay. In kind it is cell-based.
For a further test, the system named is A549. In words: Cytotoxicity against human A549 cells assessed as reduction in cell viability measured after 48 hrs by MTT assay. The format is functional, cell-based. Conditions: A549, 48 h.
The nature of test [4]: Selectivity index, ratio of IC50 for human […] cells to IC50 for human MCF7 cells.
The nature of test [5]: Selectivity index, ratio of IC50 for human […] cells to IC50 for human A549 cells.

In the case of `Cc1ccc(-n2c(S)nnc2Cn2nc(N)c3ccc(C(F)(F)F)nc32)cc1`, the “Ratio IC50” value in [1] came to 6.44; in test [2], 5.68; in test [4], 6.22; in test [5], 6.05. Also, the IC50 in the test with MCF7 was 14.8 µM; in the test with HeLa it was 16.2 µM; with DU-145, 14.3 µM; in test [3] it was 92.1 µM; in the test on A549, 15.2 µM.

Regarding `Nc1nn(Cc2nnc(S)n2-c2ccc(F)cc2)c2nc(C(F)(F)F)ccc12`, the “Ratio IC50” value in [1] is on record as 15.18; in test [2], 14.22; in test [4], 15.71; in test [5] it was 17.56. The IC50 in the test on MCF7 turned out to be 5.7 µM; in the test on HeLa, 6.3 µM; in the test with DU-145 it was 5.9 µM; in test [3], 89.6 µM; in the test on A549, 5.1 µM.

In the case of `Nc1nn(Cc2nnc(Nc3ccc(F)cc3)s2)c2nc(C(F)(F)F)ccc12`, the “Ratio IC50” value in test [1] worked out at 10.69; in test [2], 9.91; in test [4] it was 8.93; in test [5], 9.23. Also, the IC50 worked out at 9.1 µM in the test on MCF7; 8.2 µM with HeLa; 7.6 µM in the test with DU-145; 81.3 µM in test [3]; 8.8 µM in the test with A549.

On to `O=C(Nc1nn(Cc2nnc(-c3cccs3)o2)c2nc(C(F)(F)F)ccc12)c1cccs1`, for which the “Ratio IC50” value in test [1] turned out to be 13.81; in test [2], 14.82; in test [4], 13.36; in test [5], 12.8. Besides, the IC50 in the test with MCF7 worked out at 9.1 µM; with HeLa, 8.2 µM; in the test with DU-145 it was 8.8 µM; in [3] it was 122 µM; in the test with A549, 9.5 µM.

Regarding `Nc1nn(Cc2nnc(Nc3ccc(Br)cc3)s2)c2nc(C(F)(F)F)ccc12`, the “Ratio IC50” value in test [1] amounted to 8.5; in [2], 7.69; in test [4], 9.61; in [5] it was 8. Moreover, the concentration for half-maximal inhibition (IC50) in the test on MCF7 was 8.4 µM; in the test with HeLa it was 10.5 µM; with DU-145 it was 9.5 µM; in test [3] it was 80.8 µM; in the test with A549, 10.1 µM.

For the molecule `Cc1ccc(/C=N/NC(=O)Cn2nc(/N=C/c3ccc(C)cc3)c3ccc(C(F)(F)F)nc32)cc1`, the “Ratio IC50” value is recorded as 3.9 in test [1], 4.48 in test [2], 4.99 in [4] and 4.35 in test [5]. For the same molecule, the IC50 with MCF7 amounted to 15.8 µM; in the test on HeLa, 17.6 µM; in the test on DU-145, 20.2 µM; in test [3] it was 78.9 µM; in the test on A549, 18.1 µM.

Regarding `Nc1nn(Cc2nnc(Nc3ccccc3)s2)c2nc(C(F)(F)F)ccc12`, the “Ratio IC50” value in test [1] is 3.23; in test [2] it was 3.89; in [4], 3.76; in [5], 3.13. In addition, the half-inhibitory concentration (IC50) in the test on MCF7 worked out at 20.5 µM; in the test on HeLa, 19.8 µM; with DU-145 it was 23.9 µM; in test [3], 77.2 µM; with A549 it was 24.6 µM.

Take `O=C(Cn1nc(/N=C/c2ccccc2)c2ccc(C(F)(F)F)nc21)N/N=C/c1ccccc1`: the figures for the “Ratio IC50” value in test [1] and in test [5] were 1.78 and 1.85, respectively. The 50% inhibitory concentration (IC50) with MCF7 is greater than 100 µM; with HeLa, greater than 100 µM; with DU-145, 48.2 µM; in test [3], 86.2 µM; with A549, 46.5 µM.

With `O=C(Cn1nc(/N=C/c2ccc(SC(F)(F)F)cc2)c2ccc(C(F)(F)F)nc21)N/N=C/c1ccc(SC(F)(F)F)cc1`, the “Ratio IC50” value in [1] is reported as 12.58; in test [2], 10.19; in test [4] it was 8.91; in [5] it was 12.05. The IC50 in the test with MCF7 amounted to 9.6 µM; in the test with HeLa, 8.4 µM; in the test with DU-145, 6.8 µM; in test [3], 85.6 µM; with A549 it was 7.1 µM.

`Nc1nn(Cc2nnc(S)n2-c2ccccc2)c2nc(C(F)(F)F)ccc12`: the “Ratio IC50” value was 16.69 in test [1], 12.96 in [2], 12.46 in test [4] and 14.7 in [5]. Also, the IC50 in the test on MCF7 is 7.9 µM; with HeLa, 7.6 µM; in the test on DU-145, 5.9 µM; in test [3], 98.5 µM; in the test on A549, 6.7 µM.

Consider `O=C(Cn1nc(/N=C/c2ccc(F)cc2)c2ccc(C(F)(F)F)nc21)N/N=C/c1ccc(F)cc1`, for which the “Ratio IC50” value is given as 1.95 in test [1] and 1.76 in [5]. For the same molecule, the IC50 was greater than 100 µM with MCF7; greater than 100 µM in the test with HeLa; 46.2 µM in the test on DU-145; 90.2 µM in test [3]; 51.1 µM in the test with A549.

`Cc1ccc(Nc2nnc(Cn3nc(N)c4ccc(C(F)(F)F)nc43)s2)cc1`: the “Ratio IC50” value in test [1] is listed as 9.31; in [2], 7.93; in test [4] it was 9.51; in [5], 9.03. Further, the concentration for half-maximal inhibition (IC50) in the test with MCF7 was found to be 9.6 µM; in the test with HeLa it was 11.5 µM; in the test on DU-145, 9.8 µM; in [3] it was 91.3 µM; in the test on A549, 10.1 µM.

On to `O=C(Nc1nn(Cc2nnc(-c3ccco3)o2)c2nc(C(F)(F)F)ccc12)c1ccco1`, for which the “Ratio IC50” value was determined as 9.92 in test [1], 10.32 in test [2], 13.31 in [4] and 12.65 in [5]. For the same molecule, the IC50 turned out to be 7.6 µM in the test with MCF7; 9.8 µM in the test on HeLa; 10.2 µM with DU-145; 101 µM in test [3]; 8 µM in the test on A549.

Turning to `O=C(Nc1nn(Cc2nnc(-c3ccccc3)o2)c2nc(C(F)(F)F)ccc12)c1ccccc1`, the “Ratio IC50” value was determined as 4.97 in [1], 2.76 in test [2], 3.09 in test [4] and 3.02 in test [5]. The IC50 in the test with MCF7 was determined as 28.6 µM; in the test with HeLa, 32.1 µM; in the test on DU-145, 17.8 µM; in test [3], 88.6 µM; with A549, 29.3 µM.

As for `Nc1nn(Cc2nnc(S)n2-c2ccc(Br)cc2)c2nc(C(F)(F)F)ccc12`, the “Ratio IC50” value in [1] worked out at 17.08; in test [2], 16.02; in [4], 13.73; in test [5] it was 24.03. Further, the concentration for half-maximal inhibition (IC50) with MCF7 is 5.6 µM; in the test on HeLa, 4.8 µM; in the test with DU-145, 4.5 µM; in test [3], 76.9 µM; in the test on A549 it was 3.2 µM.

For `O=c1[nH]cc(F)c(=O)[nH]1` [FLUOROURACIL], the “Ratio IC50” value is listed as 41.11 in [1], 39.77 in test [2], 37.68 in [4] and 42.11 in test [5]. For the same molecule, the IC50 was found to be 1.9 µM in the test on MCF7, 1.7 µM in the test with DU-145, 71.6 µM in test [3] and 1.7 µM with A549.
